Columns and labels:
[1] = tested on: a variety of test species; assay: Post-emergence herbicidal activity (glasshouse, sprayed after 8 days cultivation, evaluated after 13 days); format: in vivo; design: key: 5=total damage to plant; 0=no damage to plant; settings: rate 1000 g/Ha, scale 0-5
How it was run: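 Visual herbicidal injury (0 = no damage, 5 = plant killed) recorded 13 days post-treatment. Treatment consisted of a single spray onto emerged seedlings at day 8; conditions before and after were 24/16 °C, 14 h light, 65% humidity.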

[2] = tested on: a variety of test species; assay: Pre-emergence herbicidal activity (glasshouse, sprayed one day after sowing, evaluated after 13 days); format: in vivo; design: key: 5=total damage to plant; 0=no damage to plant; settings: application pre-emergence, rate 1000 g/Ha, scale 0-5
How it was run: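 Damage was rated 13 days after treatment on a 0–5 scale (0 = no damage, 5 = total damage). Pots of seeds in standard soil were sprayed one day after sowing with an aqueous solution from an acetone/water (50:50), 0.5% Tween 20 formulation and kept at 24/16 °C day/night.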

CCc1onc(N2C(=O)C(Cl)=C(C)C2O)c1C#N (stereo not shown) [A71]
4: ALOMY (Alopecurus myosuroides) damage score, application post-emergence [1] | Pre-emergence herbicidal damage score, ABUTH [2] | Pre-emergence herbicidal damage score, ECHCG [2]
2: ZEAMX (Zea mays) damage score, application post-emergence [1] | Pre-emergence herbicidal damage score, ZEAMX [2]
3: Pre-emergence herbicidal damage score, ALOMY [2]
95 to 97 °C: melting point
5: ABUTH (Abutilon theophrasti) damage score, application post-emergence [1] | AMARE (Amaranthus retroflexus) damage score, application post-emergence [1] | ECHCG (Echinochloa crus-galli) damage score, application post-emergence [1] | SETFA (Setaria faberi) damage score, application post-emergence [1] | Pre-emergence herbicidal damage score, AMARE [2] | Pre-emergence herbicidal damage score, SETFA [2]

CC1=C(Cl)C(=O)N(c2cc(C(C)(C)CC#N)on2)C1O (stereo not shown) [A72]
4: Pre-emergence herbicidal damage score, ALOMY [2] | Pre-emergence herbicidal damage score, ZEAMX [2]
5: ABUTH (Abutilon theophrasti) damage score, application post-emergence [1] | ALOMY (Alopecurus myosuroides) damage score, application post-emergence [1] | AMARE (Amaranthus retroflexus) damage score, application post-emergence [1] | ECHCG (Echinochloa crus-galli) damage score, application post-emergence [1] | SETFA (Setaria faberi) damage score, application post-emergence [1] | ZEAMX (Zea mays) damage score, application post-emergence [1] | Pre-emergence herbicidal damage score, ABUTH [2] | Pre-emergence herbicidal damage score, AMARE [2] | Pre-emergence herbicidal damage score, ECHCG [2] | Pre-emergence herbicidal damage score, SETFA [2]
103 to 105 °C: melting point

CCCC1=C(Br)C(=O)N(c2noc(C(C)(C)C)c2C#N)C1OC(=O)CC (stereo not shown) [A73]
4: ALOMY (Alopecurus myosuroides) damage score, application post-emergence [1] | Pre-emergence herbicidal damage score, ECHCG [2]
5: ABUTH (Abutilon theophrasti) damage score, application post-emergence [1] | AMARE (Amaranthus retroflexus) damage score, application post-emergence [1] | ECHCG (Echinochloa crus-galli) damage score, application post-emergence [1] | SETFA (Setaria faberi) damage score, application post-emergence [1] | Pre-emergence herbicidal damage score, ABUTH [2] | Pre-emergence herbicidal damage score, AMARE [2] | Pre-emergence herbicidal damage score, SETFA [2]
3: Pre-emergence herbicidal damage score, ALOMY [2] | Pre-emergence herbicidal damage score, ZEAMX [2]
78 to 80 °C: melting point
2: ZEAMX (Zea mays) damage score, application post-emergence [1]

CC1=C(Cl)C(=O)N(c2cc(C(C)(C)C)on2)C1OC(=O)OCC(C)C (stereo not shown) [A80]
5: ABUTH (Abutilon theophrasti) damage score, application post-emergence [1] | ALOMY (Alopecurus myosuroides) damage score, application post-emergence [1] | AMARE (Amaranthus retroflexus) damage score, application post-emergence [1] | ECHCG (Echinochloa crus-galli) damage score, application post-emergence [1] | SETFA (Setaria faberi) damage score, application post-emergence [1] | Pre-emergence herbicidal damage score, ABUTH [2] | Pre-emergence herbicidal damage score, AMARE [2] | Pre-emergence herbicidal damage score, ECHCG [2] | Pre-emergence herbicidal damage score, SETFA [2]
84 to 88 °C: melting point
3: ZEAMX (Zea mays) damage score, application post-emergence [1] | Pre-emergence herbicidal damage score, ZEAMX [2]
4: Pre-emergence herbicidal damage score, ALOMY [2]

CC1=C(Cl)C(=O)N(c2cc(C(C)(C)C)on2)C1OC(=O)Oc1ccccc1 (stereo not shown) [A84]
5: ABUTH (Abutilon theophrasti) damage score, application post-emergence [1] | ALOMY (Alopecurus myosuroides) damage score, application post-emergence [1] | AMARE (Amaranthus retroflexus) damage score, application post-emergence [1] | ECHCG (Echinochloa crus-galli) damage score, application post-emergence [1] | SETFA (Setaria faberi) damage score, application post-emergence [1] | Pre-emergence herbicidal damage score, ABUTH [2] | Pre-emergence herbicidal damage score, AMARE [2] | Pre-emergence herbicidal damage score, ECHCG [2] | Pre-emergence herbicidal damage score, SETFA [2]
113 to 127 °C: melting point
4: Pre-emergence herbicidal damage score, ALOMY [2]
3: ZEAMX (Zea mays) damage score, application post-emergence [1] | Pre-emergence herbicidal damage score, ZEAMX [2]

CC(=O)OC1C(C)=C(Cl)C(=O)N1c1noc(C(C)(C)C)c1C#N (stereo not shown) [A94, [1-(5-tert-butyl-4-cyano-isoxazol-3-yl)-4-chloro-3-methyl-5-oxo-2H-pyrrol-2-yl]acetate]
130 to 132 °C: melting point
4: ZEAMX (Zea mays) damage score, application post-emergence [1] | Pre-emergence herbicidal damage score, ALOMY [2]
3: Pre-emergence herbicidal damage score, ZEAMX [2]
5: ABUTH (Abutilon theophrasti) damage score, application post-emergence [1] | ALOMY (Alopecurus myosuroides) damage score, application post-emergence [1] | AMARE (Amaranthus retroflexus) damage score, application post-emergence [1] | ECHCG (Echinochloa crus-galli) damage score, application post-emergence [1] | SETFA (Setaria faberi) damage score, application post-emergence [1] | Pre-emergence herbicidal damage score, ABUTH [2] | Pre-emergence herbicidal damage score, AMARE [2] | Pre-emergence herbicidal damage score, ECHCG [2] | Pre-emergence herbicidal damage score, SETFA [2]

CC1=C(Cl)C(=O)N(c2noc(C(C)(C)C)c2C#N)C1OC(=O)C(C)(C)C (stereo not shown) [A95]
3: ZEAMX (Zea mays) damage score, application post-emergence [1] | Pre-emergence herbicidal damage score, ZEAMX [2]
95 to 97 °C: melting point
4: Pre-emergence herbicidal damage score, ABUTH [2] | Pre-emergence herbicidal damage score, ALOMY [2]
5: ABUTH (Abutilon theophrasti) damage score, application post-emergence [1] | ALOMY (Alopecurus myosuroides) damage score, application post-emergence [1] | AMARE (Amaranthus retroflexus) damage score, application post-emergence [1] | ECHCG (Echinochloa crus-galli) damage score, application post-emergence [1] | SETFA (Setaria faberi) damage score, application post-emergence [1] | Pre-emergence herbicidal damage score, AMARE [2] | Pre-emergence herbicidal damage score, ECHCG [2] | Pre-emergence herbicidal damage score, SETFA [2]

CCCC1=C(Cl)C(=O)N(c2noc(C(C)(C)C)c2C#N)C1OC(=O)CC (stereo not shown) [A100]
4: Pre-emergence herbicidal damage score, ALOMY [2]
69 to 71 °C: melting point
3: Pre-emergence herbicidal damage score, ZEAMX [2]
5: ABUTH (Abutilon theophrasti) damage score, application post-emergence [1] | ALOMY (Alopecurus myosuroides) damage score, application post-emergence [1] | AMARE (Amaranthus retroflexus) damage score, application post-emergence [1] | ECHCG (Echinochloa crus-galli) damage score, application post-emergence [1] | SETFA (Setaria faberi) damage score, application post-emergence [1] | ZEAMX (Zea mays) damage score, application post-emergence [1] | Pre-emergence herbicidal damage score, ABUTH [2] | Pre-emergence herbicidal damage score, AMARE [2] | Pre-emergence herbicidal damage score, ECHCG [2] | Pre-emergence herbicidal damage score, SETFA [2]

CC1=C(Cl)C(=O)N(c2cc(C(C)(C)C)on2)C1 [A101]
138 to 139 °C: melting point
3: Pre-emergence herbicidal damage score, ZEAMX [2]
4: ZEAMX (Zea mays) damage score, application post-emergence [1] | Pre-emergence herbicidal damage score, ALOMY [2] | Pre-emergence herbicidal damage score, SETFA [2]
5: ABUTH (Abutilon theophrasti) damage score, application post-emergence [1] | ALOMY (Alopecurus myosuroides) damage score, application post-emergence [1] | AMARE (Amaranthus retroflexus) damage score, application post-emergence [1] | ECHCG (Echinochloa crus-galli) damage score, application post-emergence [1] | SETFA (Setaria faberi) damage score, application post-emergence [1] | Pre-emergence herbicidal damage score, ABUTH [2] | Pre-emergence herbicidal damage score, AMARE [2] | Pre-emergence herbicidal damage score, ECHCG [2]

CC1=C(Cl)C(=O)N(c2noc(C(C)C)c2C#N)C1 [A103]
5: ABUTH (Abutilon theophrasti) damage score, application post-emergence [1] | AMARE (Amaranthus retroflexus) damage score, application post-emergence [1] | ECHCG (Echinochloa crus-galli) damage score, application post-emergence [1] | SETFA (Setaria faberi) damage score, application post-emergence [1] | Pre-emergence herbicidal damage score, ABUTH [2] | Pre-emergence herbicidal damage score, AMARE [2] | Pre-emergence herbicidal damage score, ECHCG [2] | Pre-emergence herbicidal damage score, SETFA [2]
4: ALOMY (Alopecurus myosuroides) damage score, application post-emergence [1] | Pre-emergence herbicidal damage score, ALOMY [2]
2: Pre-emergence herbicidal damage score, ZEAMX [2]
3: ZEAMX (Zea mays) damage score, application post-emergence [1]
112 to 114 °C: melting point

CC1=C(Cl)C(=O)N(c2cc(C(C)(C)C#N)on2)C1 [A104]
2: Pre-emergence herbicidal damage score, ZEAMX [2]
4: Pre-emergence herbicidal damage score, ALOMY [2]
141 to 143 °C: melting point
5: ABUTH (Abutilon theophrasti) damage score, application post-emergence [1] | ALOMY (Alopecurus myosuroides) damage score, application post-emergence [1] | AMARE (Amaranthus retroflexus) damage score, application post-emergence [1] | ECHCG (Echinochloa crus-galli) damage score, application post-emergence [1] | SETFA (Setaria faberi) damage score, application post-emergence [1] | ZEAMX (Zea mays) damage score, application post-emergence [1] | Pre-emergence herbicidal damage score, ABUTH [2] | Pre-emergence herbicidal damage score, AMARE [2] | Pre-emergence herbicidal damage score, ECHCG [2] | Pre-emergence herbicidal damage score, SETFA [2]

COC1=C(Br)C(=O)N(c2cc(C(C)(C)C)on2)C1O (stereo not shown) [B2]
140 to 160 °C: melting point
1: Pre-emergence herbicidal damage score, ZEAMX [2]
5: ABUTH (Abutilon theophrasti) damage score, application post-emergence [1] | AMARE (Amaranthus retroflexus) damage score, application post-emergence [1] | ECHCG (Echinochloa crus-galli) damage score, application post-emergence [1] | ZEAMX (Zea mays) damage score, application post-emergence [1] | Pre-emergence herbicidal damage score, ABUTH [2] | Pre-emergence herbicidal damage score, AMARE [2] | Pre-emergence herbicidal damage score, ECHCG [2]
4: ALOMY (Alopecurus myosuroides) damage score, application post-emergence [1] | SETFA (Setaria faberi) damage score, application post-emergence [1] | Pre-emergence herbicidal damage score, ALOMY [2] | Pre-emergence herbicidal damage score, SETFA [2]

C=CCNC1=C(Cl)C(=O)N(c2cc(C(C)(C)C)on2)C1O (stereo not shown) [C7]
2: Pre-emergence herbicidal damage score, ZEAMX [2]
3: ZEAMX (Zea mays) damage score, application post-emergence [1] | Pre-emergence herbicidal damage score, ALOMY [2] | Pre-emergence herbicidal damage score, SETFA [2]
5: ABUTH (Abutilon theophrasti) damage score, application post-emergence [1] | AMARE (Amaranthus retroflexus) damage score, application post-emergence [1] | ECHCG (Echinochloa crus-galli) damage score, application post-emergence [1] | SETFA (Setaria faberi) damage score, application post-emergence [1] | Pre-emergence herbicidal damage score, ABUTH [2] | Pre-emergence herbicidal damage score, AMARE [2] | Pre-emergence herbicidal damage score, ECHCG [2]
163 to 164 °C: melting point
4: ALOMY (Alopecurus myosuroides) damage score, application post-emergence [1]
